Measurements from patent US5063208A, “Peptidyl aminodiol renin inhibitors” (Abbott Laboratories, priority 1990, dated 1991).

Each compound was assayed against T1, human renal renin (Homo sapiens, UniProt P00797) (assay: Inhibition of human renal renin in vitro (angiotensin I formed measured by radioimmunoassay)). Details: human renal renin free from acid proteolytic activity, renin substrate human angiotensinogen, 37 degrees C, pH 6.0; read-out: IC50 (molar concentration required to cause 50% inhibition).
T1 construct: human renal renin, free from acid proteolytic activity; from tissue
T1 sequence (P00797 67-406): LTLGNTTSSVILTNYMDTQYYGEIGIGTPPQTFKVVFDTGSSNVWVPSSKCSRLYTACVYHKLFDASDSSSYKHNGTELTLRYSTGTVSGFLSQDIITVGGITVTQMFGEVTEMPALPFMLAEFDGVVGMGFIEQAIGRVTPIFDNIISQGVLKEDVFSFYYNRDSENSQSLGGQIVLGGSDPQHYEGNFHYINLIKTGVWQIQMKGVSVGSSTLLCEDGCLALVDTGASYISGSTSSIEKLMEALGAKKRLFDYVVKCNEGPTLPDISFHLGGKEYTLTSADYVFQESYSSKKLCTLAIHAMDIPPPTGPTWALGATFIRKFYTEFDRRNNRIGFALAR
Assay type: biochemical
Protocol: The compounds of the invention are also useful for treating congestive heart failure in a mammal. […] At the end of the incubation, the amount of angiotensin I formed is measured by radioimmunoassay and the molar concentration required to cause 50% inhibition, expressed as the IC50, is calculated.

IC50 [nM]	SMILES
0.45	CC(C)C[C@H](O)[C@H](O)[C@H](CC1CCCCC1)NC(=O)[C@H](Cc1cscn1)NC(=O)[C@@H](CC(=O)CS(=O)(=O)C(C)(C)C)Cc1ccccc1 [Example 98, (2R)-2-Benzyl-5-tert-butylsulfonyl-4-oxopentanoyl-L-(4-thiazolyl)Ala Amide of (2S,3R,4S)-2-Amino-1-cyclohexyl-3,4-dihydroxy-6-methylheptane]
0.3	CC(C)C[C@H](O)[C@H](O)[C@H](CC1CCCCC1)NC(=O)[C@H](Cc1cscn1)NC(=O)[C@@H](CC(=O)N(C)CCn1ccnc1)Cc1ccccc1 [Example 117, (2R)-2-Benzyl-3-[(2-imidazol-1-ylethyl)methylaminocarbonyl]propionyl-L-(4-thiazolyl)Ala Amide of (2S,3R,4S)-2-Amino-1-cyclohexyl-3,4-dihydroxy-6-methylheptane]
0.38	CC(C)C[C@H](O)[C@H](O)[C@H](CC1CCCCC1)NC(=O)[C@H](Cc1cccs1)NC(=O)[C@@H](CC(=O)N(C)CCn1cccn1)Cc1ccccc1 [Example 106, (2R)-2-Benzyl-3-[(2-pyrazol-1-ylethyl)methylaminocarbonyl]propionyl-L-(2-thienyl)Ala Amide of (2S,3R,4S)-2-Amino-1-cyclohexyl-3,4-dihydroxy-6-methylheptane]
0.56	CC(C)C[C@H](O)[C@H](O)[C@H](CC1CCCCC1)NC(=O)[C@H](Cc1cscn1)NC(=O)[C@@H](CC(=O)CN1CCOCC1)Cc1ccccc1 [Example 95, (2R)-2-Benzyl-5-morpholin-4-yl-4-oxopentanoyl-L-(4-thiazolyl)Ala Amide of (2S,3R,4S)-2-Amino-1-cyclohexyl-3,4-dihydroxy-6-methylheptane]
0.55	CC(C)C[C@H](O)[C@H](O)[C@H](CC1CCCCC1)NC(=O)[C@H](Cc1cscn1)NC(=O)[C@@H](CC(=O)N1CCN(C2CC2)CC1)Cc1ccccc1 [Example 125, (2R)-2-Benzyl-3-[(4-cyclopropylpiperazin-1-yl)carbonyl]propionyl-L-(4-thiazolyl)Ala Amide of (2S,3R,4S)-2-Amino-1-cyclohexyl-3,4-dihydroxy-6-methylheptane]
0.67	CC(C)C[C@H](O)[C@H](O)[C@H](CC1CCCCC1)NC(=O)[C@H](Cc1cscn1)NC(=O)[C@H](Cc1ccccc1)Cn1cccn1 [Example 101, (2R)-2-Benzyl-3-pyrazol-1-ylpropionyl-L-(4-thiazolyl)Ala Amide of (2S,3R,4S)-2-Amino-1-cyclohexyl-3,4-dihydroxy-6-methylheptane]
0.26	CCCC[C@H](NC(=O)[C@@H](CC(=O)N(C)CCn1ccnc1)Cc1ccccc1)C(=O)N[C@@H](CC1CCCCC1)[C@@H](O)[C@@H](O)CC(C)C [Example 123, (2R)-2-Benzyl-3-[(2-imidazol-1-ylethyl)methylaminocarbonyl]propionyl-Nle Amide of (2S,3R,4S)-2-Amino-1-cyclohexyl-3,4-dihydroxy-6-methylheptane]
0.21	CC(C)C[C@H](O)[C@H](O)[C@H](CC1CCCCC1)NC(=O)[C@H](Cc1cscn1)NC(=O)[C@@H](CC(=O)CCCc1ccncc1)Cc1ccccc1 [Example 154, (2R)-2-Benzyl-3-[(2-pyridin-4-ylethyl)methylcarbonyl]propionyl-L-(4-thiazolyl)Ala Amide of (2S,3R,4S)-2-Amino-1-cyclohexyl-3,4-dihydroxy-6-methylheptane]
0.91	CC(C)C[C@H](O)[C@H](O)[C@H](CC1CCCCC1)NC(=O)[C@H](Cc1cscn1)NC(=O)[C@@H](CC(=O)C[S+]([O-])C(C)(C)C)Cc1ccccc1 (stereo partly drawn) [Example 99, (2R)-2-Benzyl-5-tert-butylsulfinyl-4-oxopentanoyl-L-(4-thiazolyl)Ala Amide of (2S,3R,4S)-2-Amino-1-cyclohexyl-3,4-dihydroxy-6-methylheptane]
0.22	CC(C)C[C@H](O)[C@H](O)[C@H](CC1CCCCC1)NC(=O)[C@H](Cn1cccn1)NC(=O)[C@@H](CC(=O)N(C)CCn1ccnc1)Cc1ccccc1 [Example 120, (2R)-2-Benzyl-3-[(2-imidazol-1-ylethyl)methylaminocarbonyl]propionyl-L-(1-pyrazolyl)Ala Amide of (2S,3R,4S)-2-Amino-1-cyclohexyl-3,4-dihydroxy-6-methylheptane]
0.35	CC(C)C[C@H](O)[C@H](O)[C@H](CC1CCCCC1)NC(=O)[C@H](Cc1cscn1)NC(=O)[C@@H](CC(=O)N(C)CCN1CCN(C)CC1)Cc1ccccc1 [Example 116, (2R)-2-Benzyl-3-[2-(4-methyloioerazin-1-ylethyl)methylaminocarbonyl]propionyl-L-(4-thiazolyl) Ala Amide of (2S,3R,4S)-2-Amino-1-cyclohexyl-3,4-dihydroxy-6-methylheptane]
0.4	CC(C)C[C@H](O)[C@H](O)[C@H](CC1CCCCC1)NC(=O)[C@H](Cc1cscn1)NC(=O)[C@@H](CC(=O)N(C)CCN1CCOCC1)Cc1ccccc1 [Example 96, (2R)-2-Benzyl-3-[(2-morpholin-4-ylethyl)methylaminocarbonyl]propionyl-L-(4-thiazolyl)Ala Amide of (2S,3R,4S)-2-Amino-1-cyclohexyl-3,4-dihydroxy-6-methylheptane]
0.28	CC(C)C[C@H](O)[C@H](O)[C@H](CC1CCCCC1)NC(=O)[C@H](Cc1cscn1)NC(=O)[C@@H](CC(=O)N(C)CCn1cccc1)Cc1ccccc1 [Example 153, (2R)-2-Benzyl-3-[(2-pyrrol-1-ylethyl)methylcarbonyl]propionyl-L-(4-thiazolyl)Ala Amide of (2S,3R,4S)-2-Amino-1-cyclohexyl-3,4-dihydroxy-6-methylheptane]
0.34	CC(C)C[C@H](O)[C@H](O)[C@H](CC1CCCCC1)NC(=O)[C@H](Cc1cscn1)NC(=O)[C@@H](CC(=O)N(C)c1ccncc1)Cc1ccccc1 [Example 124, (2R)-2-Benzyl-3-[(N-pyridin-4-yl)methylaminocarbonyl]propionyl-L-(4-thiazolyl)Ala Amide of (2S,3R,4S)-2-Amino-1-cyclohexyl-3,4-dihydroxy-6-methylheptane]
0.32	CC(C)C[C@H](O)[C@H](O)[C@H](CC1CCCCC1)NC(=O)[C@H](Cc1cc[nH]n1)NC(=O)[C@@H](CC(=O)N(C)CCN1CCOCC1)Cc1ccccc1 [Example 155, (2R)-2-Benzyl-3-[(2-morpholin-4-ylethyl)methylcarbonyl]propionyl-L-(3-pyrazolyl)Ala Amide of (2S,3R,4S)-2-Amino-1-cyclohexyl-3,4-dihydroxy-6-methylheptane]
0.3	CC(C)C[C@H](O)[C@H](O)[C@H](CC1CCCCC1)NC(=O)[C@H](Cc1cscn1)NC(=O)[C@@H](CC(=O)N(C)CCn1cccn1)Cc1ccccc1 [Example 118, (2R)-2-Benzyl-3-[(2-pyrazol-1-ylethyl)methylaminocarbonyl]propionyl-L-(4-thiazolyl)Ala Amide of (2S,3R,4S)-2-Amino-1-cyclohexyl-3,4-dihydroxy-6-methylheptane]
0.89	CC(C)C[C@H](O)[C@H](O)[C@H](CC1CCCCC1)NC(=O)[C@H](Cn1ccnc1)NC(=O)[C@@H](CC(=O)N(C)CCn1cccn1)Cc1ccccc1 [Example 107, (2R)-2-Benzyl-3-[(2-pyrazol-1-ylethyl)methylaminocarbonyl]propionyl-L-(1-imidazolyl)Ala Amide of (2S,3R,4S)-2-Amino-1-cyclohexyl-3,4-dihydroxy-6-methylheptane]
0.69	CC(C)C[C@H](O)[C@H](O)[C@H](CC1CCCCC1)NC(=O)[C@H](Cc1cscn1)NC(=O)[C@H](Cc1ccccc1)Cn1ccnc1 [Example 102, (2R)-2-Benzyl-3-imidazol-1-ylpropionyl-L-(4-thiazolyl)Ala Amide of (2S,3R,4S)-2-Amino-1-cyclohexyl-3,4-dihydroxy-6-methylheptane]
0.19	CC(C)C[C@H](O)[C@H](O)[C@H](CC1CCCCC1)NC(=O)[C@H](Cn1cccn1)NC(=O)[C@@H](CC(=O)N(C)CCn1cccn1)Cc1ccccc1 [Example 142, (2R)-2-Benzyl-3-[(2-pyrazol-1-ylethyl)methylaminocarbonyl]propionyl-L-(1-pyrazolyl)Ala Amide of (2S,3R,4S)-2-Amino-1-cyclohexyl-3,4-dihydroxy-6-methylheptane]
1.3	CC(C)C[C@H](O)[C@H](O)[C@H](CC1CCCCC1)NC(=O)[C@H](Cn1cccn1)N(C)C(=O)C(Cc1ccccc1)NC(=O)N(C)CCc1ccccn1 (stereo partly drawn) [Example 156, [(2-pyridin-2-ylethyl)methylcarbonyl]phenylalanine-L-(N-α-methyl)-(1-pyrazolyl)alanine Amide of (2S,3R,4S)-2Amino-1-cyclohexyl-3,4-dihydroxy-6-methylheptane]
0.43	CN=c1scc(C[C@@H](Cc2ccccc2)C(=O)N[C@@H](Cc2cscn2)C(=O)N[C@@H](CC2CCCCC2)[C@@H](O)[C@@H](O)CC(C)C)n1C [Example 103, (2R)-2-Benzyl-3-(2-methylimino-3-methyl-2,3-dihydrothiazol-4-yl)propionyl-L-(4-thiazolyl) Ala Amide of (2S,3R,4S)-2-Amino-1-cyclohexyl-3,4-dihydroxy-6-methylheptane]
0.43	CC(C)C[C@H](O)[C@H](O)[C@H](CC1CCCCC1)NC(=O)[C@H](Cc1cscn1)NC(=O)[C@H](Cc1ccccc1)Cc1csc(N(C)C)n1 [Example 104, (2R)-2-Benzyl-3-(2-dimethylaminothiazol-4-yl)propionyl-L-(4-thiazolyl)Ala Amide of (2S,3R,4S)-2-Amino-1-cyclohexyl-3,4-dihydroxy-6-methylheptane]
